Results as given in PMC9180926, “Discovery of Novel 3-Hydroxyquinazoline-2,4(1H,3H)-Dione Derivatives: A Series of Metal Ion Chelators with Potent Anti-HCV Activities” (International Journal of Molecular Sciences, 2022).
Read-outs that look alike come from different tables or passages of the source.

Experiments:
[1] = system: HCV 1b replicon cells (Huh-7.5.1); experiment: Anti-HCV assay, HCV 1b replicon cells with luciferase reporter; type: cell-based, hepatitis C virus (HCV) subtype 1b; conditions: for inhibition at 10 µM / inhibition at 25 µM: Huh-7.5.1, 72 h; for inhibition at 10 µM: read-out: HCV Inhibition 10 μM; for inhibition at 25 µM: read-out: HCV Inhibition 25 μM; for EC50: mean ± SD; for HCV inhibition at the tested concentrations: at the tested concentrations (25 μM and 10 μM)
Description: (§1) The HCV replicons were validated as convenient and effective models for testing the anti-HCV activity. Since HCV subtype 1b is one of the major subtypes worldwide, especially in China, the replicon model from the Huh-7.5.1 cell line integrating HCV 1b genome encoding the nonstructural proteins was chosen to evaluate the anti-HCV activities of 3-hydroxyquinazoline-2,4(1H,3H)-diones. The inhibitory rates of the compounds on HCV replicon cells were determined at concentrations of 25 μM and 10 μM, respectively. The broad-spectrum antiviral drug ribavirin (RBV) and the NS5B nucleoside inhibitor 2′-C-methyladenosine (2CMA) were selected as positive controls. The cytotoxicity of these compounds on replicon cells was determined using the cell counting kit-8 (CCK-8) assay.
HCV 1b replicon cells (Huh-7.5.1) containing luciferase reporter gene were kindly provided by Prof. Zhenghong Yuan (Key Laboratory of Medical Molecular Virology, Fudan University, Shanghai, China). The replicon cells were plated at 1.5 × 10^4 cells per well in a 48-well plate (Corning Inc., New York, NY, USA) at 5% CO2/37 °C. The culture medium was Dulbecco’s Modified Eagle Medium (DMEM, pH 7.3, Shanghai XP Biomed Ltd., Shanghai, China) containing 10% fetal bovine serum (Shanghai XP Biomed Ltd., Shanghai, China), 10^5 U/L penicillin, 0.1 g/L streptomycin, and 0.5 μg/mL blasticidin. After 12 h, the culture medium in each well was replaced with 300 μL of pre-prepared fresh culture medium containing test compound (dissolved in DMSO with specific concentration) or blank DMSO. The final concentration of DMSO in the culture medium in the plate was 0.1%. Each group was tested at least twice in parallel. Ribavirin and 2CMA were used as the positive controls. After incubating the drug-added plate at 5% CO2/37 °C for 72 h, the medium was removed, and each well was washed with 300 μL of phosphate buffer solution (PBS, Shanghai XP Biomed Ltd., Shanghai, China). The cells in each well were then lysed with 50 μL of 1× lysis buffer (E2820, Promega, Madison, WI, USA). Subsequently, 50 μL of 1× luciferase assay substrate (E2820, Promega, Madison, WI, USA) was mixed with 20 μL of the harvested cell lysates.
The inhibitory rates under at least six different concentration gradients were imported into GraphPad Prism 7.0 software to calculate the anti-HCV EC50 values of the compounds using the nonlinear fitting method.

[2] = Cytotoxicity assay (CCK-8) on replicon cells; type: cell-based; conditions: human, HCV 1b replicon cells (Huh-7.5.1); 50% cytotoxic concentration; CCK-8, HCV 1b replicon cells, 72 h
Description: as §1
The HCV 1b replicon cells were incubated and treated with test compounds or blank DMSO in a 48-well plate using the same materials and methods as described in the experimental procedure of anti-HCV assay. The final concentration of DMSO in each well was 0.1%. After 72 h of drug treatment, the culture medium in the well plate was removed, and cells in each well were washed with 300 μL of PBS. A total of 300 μL of pre-prepared fresh culture medium containing 30 μL CCK-8 reagent (Donjindo, Kumamoto, Japan) was added to each well, and the plate was incubated at 5% CO2/37 °C for 2 h. The OD (optical density) value of each well at 450 nm was measured using a multi-function microplate reader (SpectraMax M5, Molecular Devices, San Jose, CA, USA). The death ratio of each well was calculated using the following equation, in which ODcompound or ODblank represents the measured OD value of the compound group or the blank control (DMSO), respectively:death ratio = (1−ODcompound/ODblank) × 100%(2)
The cell death data under at least six different concentration gradients were imported into GraphPad Prism 7.0.0 software (GraphPad Software Inc., San Diego, CA, USA), and the CC50 (50% cytotoxic concentration) values were calculated using the nonlinear fitting method.

[3] = Hepatitis C virus, inhibitory rate at 10 μM, HCV 1b replicon cells, 72 h
[4] = Hepatitis C virus, inhibitory rate at 25 μM, HCV 1b replicon cells, 72 h
[5] = Hepatitis C virus, Huh-7.5.1, 50% effective concentration, HCV 1b replicon cells
[6] = 50% effective concentration, HCV 1b replicon cells

SMILES | inhibition at 10 µM [1, 3] | inhibition at 25 µM [1, 4] | also measured
CCCn1c(=O)n(O)c(=O)c2ccc(-c3ccccc3)cc21 [23g, 3-Hydroxy-7-phenyl-1-propylquinazoline-2,4(1H,3H)-dione] | -2.2% | 67.4% | 
O=c1[nH]c2c(-c3ccc(F)cc3)cccc2c(=O)n1O [21v, 8-(4-Fluorophenyl)-3-hydroxyquinazoline-2,4(1H,3H)-dione] | 23.5% | 44.5% | 
Cc1ccc(F)cc1-c1ccc2c(=O)n(O)c(=O)[nH]c2c1 [21p, 7-(5-Fluoro-2-methylphenyl)-3-hydroxyquinazoline-2,4(1H,3H)-dione] | 44.9% |  | EC50 [1, 5]: 9.9 ± 0.6 µM; CC50 at 72 h [2]: 13.4 ± 5.2 µM
O=C(Cn1c(=O)n(O)c(=O)c2ccccc21)NCc1ccccc1 [10h, N-Benzyl-2-(3-hydroxy-2,4-dioxo-3,4-dihydroquinazolin-1(2H)-yl)acetamide] | 1.3% | ≤ 50% | 
O=c1c2ccccc2n(CCCc2ccccc2)c(=O)n1O [10b, 3-Hydroxy-1-(3-phenylpropyl)quinazoline-2,4(1H,3H)-dione] | 28.6% | 40.9% | 
COc1ccc(NC(=O)Cn2c(=O)n(O)c(=O)c3ccccc32)cc1 [10o, 2-(3-Hydroxy-2,4-dioxo-3,4-dihydroquinazolin-1(2H)-yl)-N-(4-methoxyphenyl)acetamide] | 16.9% | 67.5% | 
COc1ccc(-c2ccc3c(=O)n(O)c(=O)n(C)c3c2)cc1 [23d, 3-Hydroxy-7-(4-methoxyphenyl)-1-methylquinazoline-2,4(1H,3H)-dione] | 73.3% |  | EC50 [1, 5]: 3.3 ± 0.2 µM; CC50 at 72 h [2]: 9.3 ± 0.4 µM
O=C(Cn1c(=O)n(O)c(=O)c2ccccc21)Nc1ccccc1 [10j, 2-(3-Hydroxy-2,4-dioxo-3,4-dihydroquinazolin-1(2H)-yl)-N-phenylacetamide] | 30.1% | 62.7% | 
O=c1[nH]c2cc(Cc3ccccc3)ccc2c(=O)n1O [18a, 7-Benzyl-3-hydroxyquinazoline-2,4(1H,3H)-dione] | 28.6% | 59.8% | 
Cn1c(=O)n(O)c(=O)c2ccc(Cc3ccccc3)cc21 [18b, 7-Benzyl-3-hydroxy-1-methylquinazoline-2,4(1H,3H)-dione] | 23% |  | 
Cn1c(=O)n(O)c(=O)c2ccc(Cc3cc(F)cc(F)c3)cc21 [18c, 7-(3,5-Difluorobenzyl)-3-hydroxy-1-methylquinazoline-2,4(1H,3H)-dione] | 39.5% |  | 
O=C(Cn1c(=O)n(O)c(=O)c2ccccc21)NCCc1ccccc1 [10f, 2-(3-Hydroxy-2,4-dioxo-3,4-dihydroquinazolin-1(2H)-yl)-N-phenethylacetamide] | 13.3% | ≤ 50% | 
O=c1[nH]c2ccccc2c(=O)n1O [10a, 3-Hydroxyquinazoline-2,4(1H,3H)-dione] |  |  | inhibition at 10 µM ([1]; Hepatitis C virus): -3%; inhibition at 25 µM ([1]; Hepatitis C virus): 36%
O=C(Cn1c(=O)n(O)c(=O)c2ccccc21)NCc1c(Cl)cccc1Cl [10k, N-(2,6-Dichlorobenzyl)-2-(3-hydroxy-2,4-dioxo-3,4-dihydroquinazolin-1(2H)-yl)acetamide] | 43.7% | 54.7% | 
O=C(Cn1c(=O)n(O)c(=O)c2ccccc21)Nc1ccc(C(F)(F)F)cc1 [10p, 2-(3-Hydroxy-2,4-dioxo-3,4-dihydroquinazolin-1(2H)-yl)-N-(4-(trifluoromethyl)phenyl)acetamide] | 41.4% | 64.9% | EC50 [1, 6]: 8.1 ± 0.1 µM; EC50 [1, 5]: < 10 µM; CC50 at 72 h [2]: 15.3 ± 0.7 µM
O=C(Cn1c(=O)n(O)c(=O)c2ccccc21)NCc1ccc(F)cc1 [10m, N-(4-Fluorobenzyl)-2-(3-hydroxy-2,4-dioxo-3,4-dihydroquinazolin-1(2H)-yl)acetamide] | 12.7% | 58.4% | 
CCCn1c(=O)n(O)c(=O)c2cc(-c3ccccc3)ccc21 [23f, 3-Hydroxy-6-phenyl-1-propylquinazoline-2,4(1H,3H)-dione] | 26.7% | 28% | 
O=c1[nH]c2cc(-c3cc(F)c(F)c(F)c3)ccc2c(=O)n1O [21q, 3-Hydroxy-7-(3,4,5-trifluorophenyl)quinazoline-2,4(1H,3H)-dione] | 26.8% | 5.4% | 
O=C(Cn1c(=O)n(O)c(=O)c2ccccc21)NCC1CC1 [10g, N-(Cyclopropylmethyl)-2-(3-hydroxy-2,4-dioxo-3,4-dihydroquinazolin-1(2H)-yl)acetamide] | 10.6% | 15% | HCV inhibition at the tested concentrations [1]: less than 30%
CCCCNC(=O)Cn1c(=O)n(O)c(=O)c2ccccc21 [10i, N-Butyl-2-(3-hydroxy-2,4-dioxo-3,4-dihydroquinazolin-1(2H)-yl)acetamide] | 26.5% | 22.9% | HCV inhibition at the tested concentrations [1]: less than 30%
COc1ccc(-c2ccc3c(=O)n(O)c(=O)[nH]c3c2)cc1 [21i, 3-Hydroxy-7-(4-methoxyphenyl)quinazoline-2,4(1H,3H)-dione] | 64.7% |  | EC50 [1, 5]: 3.4 ± 0.1 µM; CC50 at 72 h [2]: 5.6 ± 0.5 µM
N#Cc1ccc(NC(=O)Cn2c(=O)n(O)c(=O)c3ccccc32)cc1 [10n, N-(4-Cyanophenyl)-2-(3-hydroxy-2,4-dioxo-3,4-dihydroquinazolin-1(2H)-yl)acetamide] | 58% | 66% | EC50 [1, 6]: 6.4 ± 0.3 µM; EC50 [1, 5]: < 10 µM; CC50 at 72 h [2]: 10.6 ± 0.3 µM
O=c1[nH]c2c(-c3ccc(C(F)(F)F)cc3)cccc2c(=O)n1O [21x, 3-Hydroxy-8-(4-(trifluoromethyl)phenyl)quinazoline-2,4(1H,3H)-dione] | 16.4% | 47.5% | 
O=c1[nH]c2cc(-c3cc(F)cc(F)c3)ccc2c(=O)n1O [21m, 7-(3,5-Difluorophenyl)-3-hydroxyquinazoline-2,4(1H,3H)-dione] | 48.2% |  | 
O=c1[nH]c2cc(-c3ccc(F)cc3F)ccc2c(=O)n1O [21n, 7-(2,4-Difluorophenyl)-3-hydroxyquinazoline-2,4(1H,3H)-dione] | 69.7% |  | EC50 [1, 5]: 3.9 ± 0.3 µM; CC50 at 72 h [2]: 11.2 ± 1.4 µM
O=c1c2ccc(-c3ccccc3)cc2n(Cc2ccccc2)c(=O)n1O [23i, 1-Benzyl-3-hydroxy-7-phenylquinazoline-2,4(1H,3H)-dione] | -6.5% | 4.8% | 
COc1ccc(-c2cccc3c(=O)n(O)c(=O)[nH]c23)cc1 [21w, 3-Hydroxy-8-(4-methoxyphenyl)quinazoline-2,4(1H,3H)-dione] | 11.5% | 36.4% | 
O=c1c2cc(-c3ccccc3)ccc2n(Cc2ccccc2)c(=O)n1O [23h, 1-Benzyl-3-hydroxy-6-phenylquinazoline-2,4(1H,3H)-dione] | 7.8% | 2% | 
O=C(Cn1c(=O)n(O)c(=O)c2ccccc21)NCc1cccc(F)c1 [10l, N-(3-Fluorobenzyl)-2-(3-hydroxy-2,4-dioxo-3,4-dihydroquinazolin-1(2H)-yl)acetamide] | 22.4% | 45.5% | 
